Laboratory results published in patent US4980377A, “1-(aminophenyl)-2-aminopropanone derivatives” (Laboratoire L. Lafon, priority 1984, dated 1990).
“Also recorded” adds a separate entry of the source. Where a name gives a salt, the structure may show the parent alone.

Tests used:
mice [1] = experiment: Overall behavior and reactivities in mice; type: in vivo, mouse; details: dose not stated
Method: (§1) In the neuropsychopharmacological study which follows, a solution of CRL 41 153 in distilled water (pH 1.5) was administered intraperitoneally in a volume of 20 ml/kg to male mice and 5 ml/kg to male rats.
(§2) Groups of three animals are observed before and then 0.25 hour, 0.50 hour, 1 hour, 2 hours, 3 hours and 24 hours after the administration of CRL 41 153.

rats [2] = experiment: Overall behavior and reactivities in rats; type: in vivo, rat; details: dose not stated
Method: as §1, §2

mice [3] = experiment: Interaction with apomorphine in mice; type: in vivo, mouse; details: i.p.
Method: Groups of 6 mice receive CRL 41 153 0.5 hour before the subcutaneous injection of 1 or 16 mg/kg of apomorphine.

rats [4] = experiment: Interaction with apomorphine in rats; type: in vivo, rat; details: i.p.
Method: CRL 41 153 is administered to groups of 6 rats 0.5 hour before the subcutaneous injection of 0.5 mg/kg of apomorphine.

rats [5] = experiment: Interaction with amphetamine; type: in vivo, rat; details: i.p.
Method: Amphetamine (2 mg/kg) is injected intraperitoneally into groups of 6 rats 30 minutes after the administration of CRL 41 153. […] 4 mg/kg and 16 mg/kg, CRL 41 153 potentiates the intensity and duration of the stereotypies induced by amphetamine.

mice [6] = experiment: Interaction with reserpine; type: in vivo, mouse; details: i.p.
Method: Four hours after the intraperitoneal injection of 2.5 mg/kg of reserpine, groups of 6 mice receive CRL 41 153.

mice [7] = experiment: Interaction with oxotremorine; type: in vivo, mouse; details: i.p.
Method: CRL 41 153 is administered to groups of 6 mice 0.5 hour before the intraperitoneal injection of 0.5 mg/kg of oxotremorine.

mice [8] = experiment: Four plate test, traction and electric shock; type: in vivo, mouse; details: i.p.
Method: The test is performed on groups of 10 mice 30 minutes after the administration of CRL 41 153.

mice [9] = experiment: Spontaneous motility; type: in vivo, mouse; details: i.p.
Method: 0.5 hour after they have received CRL 41 153, the mice (6 per dose, 12 control animals) are placed in an actimeter, where their motility is recorded for 30 minutes.

mice [10] = experiment: Motility reduced by habituation to the enclosure; type: in vivo, mouse; details: i.p.
Method: After they have stayed In the actimeters for 18 hours, (he mice (6 per dose, 12 control animals) receive CRL 41 153. They are immediately returned to their respective enclosures and, half an hour later, their motility is recorded for 30 minutes.

mice [11] = experiment: Motility reduced by hypoxic aggression; type: in vivo, mouse; details: i.p.
Method: Half an hour after they have received CRL 41 153, the mice (10 per dose, 20 control animals) are subjected to acute hypobaric anoxia [pressure reduction of 600 mm Hg (i.e. about 8×10^4 Pa) in 90 seconds; release of vacuum in 45 seconds] and are then placed in an actimeter, where their motility is recorded for 10 minutes.

mice [12] = experiment: Interaction with barbital; type: in vivo, mouse; details: i.p., barbital 220 mg/kg
Method: Half an hour after the administration of CRL 41 153, groups of 10 mice receive an intraperitoneal injection of barbital (220 mg/kg).

mice [13] = experiment: Behavioral despair; type: in vivo, mouse; details: forcibly immersed mice, i.p.
From the text: Half an hour after they have received CRL 41 153, groups of 6 mice are placed in a beaker filled with water to a height of 6 cm. The total period of immobility between the 2nd and 6th minutes following immersion is noted.

[14] = test system: gravid White New Zealand female rabbits; experiment: Teratogenicity in gravid White New Zealand rabbits; type: in vivo, rabbit; details: day 5 to day 18 of gestation; for Affected foetuses, %: normal limit 1.5%
Method: The protocol used comprised administering to gravid White New Zealand female rabbits (weighing each about 2900-3000 grams before gestation) a daily dose of 0 (batch of control animals), 5,10 or 50 mg/kg of each product to be tested by gastrogavage from day 5 to day 18 of gestation, then carrying out a cesarean operation on day 29 of gestation in order to enumerate:
(i) the total number of foestuses, and
(ii) the total number of foestuses presenting at least one malformation.
To appreciate the results of such a protocol it must be noted that natural malformations may occur. Statistically, the percentage of foetuses presenting at least one malformation in any control batch of gravid White New Zealand female rabbits is lower than or equal to 1.5% with respect to the total number of foetuses.
To be precise in this protocol a malformation comprises at least one of the following cases: articular limb blocade, anorous foetus, deviated tail, shorter tail, skull deformation, exemcephalia.

[15] = pH of solutions in distilled water; type: physicochemical
Method: The neuropsychopharmacological study was undertaken according to the procedures described above for CRL 41 153, CRL 41 213 being adminstered intraperitoneally, in solution in distilled water, in a volume of 20 ml/kg to male mice and a volume of 5 ml/kg to male rats, and the pH of the injected solution varying with the concentration of CRL 41 213 according to the data given in Table II below.

CNS = experiment: Neuropsychopharmacological profile as a whole; type: in vivo, mice and rats
Method: as §1

immunity = experiment: Immunological study (overall); details: in vivo
[16] = Particular toxicity in grouped mice; details: mouse, in vivo, ip
Method: The number of dead animals is noted after 1 hour, 2 hours, 3 hours, 4 hours and 24 hours.

Row | Structure (SMILES) | Overall behavior: observed effects (summary) (mice [1]) | Stereotype movements (summary) (mice [1]) | Overall behavior: observed effects (summary) (rats [2]) | Stereotype movements (summary) (rats [2]) | Effect on hypothermia induced by apomorphine (mice [3]) | Effect on stereotypies induced by apomorphine (rats [4]) | Effect on stereotypies induced by amphetamine (rats [5]) | Effect on hypothermia induced by reserpine (mice [6]) | Effect on ptosis induced by reserpine (mice [6]) | Effect on hypothermic action of oxotremorine (mice [7]) | Effect on convulsant effects of electric shock (mice [8]) | Spontaneous motor activity (mice [9]) | Motor activity of mice accustomed to their enclosure (mice [10]) | Motor recovery of mice after hypobaric hypoxia (mice [11]) | Duration of the sleep induced by barbital (mice [12]) | Period of immobility due to despair (mice [13]) | pH ([15]; 6 g/liter in distilled water) | pH ([15]; 50 g/liter in distilled water) | Antidepressant effects (overall) (CNS; conclusion of the tests) | Stimulant effects (overall) (CNS; conclusion of the tests) | also measured
1 | CNC(C)C(=O)c1ccc(N)cc1 (stereo not shown) [CRL 41 218, 1-4-aminophenyl)-2-methylaminopropanone dihydrochloride] | excitation in mice and rats | presence of stereotype movements | excitation in mice and rats | presence of stereotype movements | antagonism of the hypothermia | potentiation of the stereotypies | potentiation of the stereotypies | antagonism of the hypothermia | antagonism of the ptosis induced by reserpine | antagonism of the hypothermia | antagonism, at strong doses, of the convulsant effects of electric shock | increase in the motor activity | resumption in the motor activity of mice accustomed to their enclosure | improvement in the motor recovery | distinct antagonism of the sleep induced by barbital | a reduction in the period of immobility | 5.0 | 4.0 | antidepressant effects | stimulant effects | Affected foetuses, number ([14]; 50 mg/kg daily): 1; Total foetuses (live) ([14]; 50 mg/kg daily): 79; Affected foetuses, % ([14]; 50 mg/kg daily): 1.26%; pH ([15]; 13 g/liter in distilled water): 4.5; pH ([15]; ≤3 g/liter in distilled water): 5.5; Anticonvulsant effects (overall) (CNS; conclusion of the tests): anticonvulsant effects; α-adrenergic stimulant effects (overall) (CNS; conclusion of the tests): α-adrenergic stimulant effects; Peripheral α-adrenergic signs (mydriasis, salivation, lacrimation, exophthalmos) (CNS; species and dose not stated, dihydrochloride): mydriasis; also recorded: salivation
2 | CC(C(=O)c1ccc(N)cc1)N1CCCCC1 (stereo not shown) [CRL 41 241] | excitation with hyperactivity in mice and rats; also recorded: moderate mydriasis in mice and rats | the presence of stereotype movements in mice and rats | excitation with hyperactivity in mice and rats; also recorded: moderate mydriasis in mice and rats | the presence of stereotype movements in mice and rats | antagonism of the hypothermia | potentiation of the stereotypies | potentiation of the stereotypies | antagonism of the hypothermia | a decrease in the ptosis induced by reserpine | antagonism of the hypothermia | total antagonism of the convulsant effect of electric shock | an increase in the spontaneous motor activity of mice | resumption in the motor activity of mice accustomed to their enclosure | improvement in the motor recovery | a reduction in the duration of the sleep induced by barbital | a reduction in the Period of immobility | 2.0 | 1.0 | antidepressant-type effect | large stimulant component | Effect on trembling induced by oxotremorine (mice [7]): a very distinct reduction in the intensity of the trembling due to oxotremorine; Number of punished passes in the four plate test (mice [8]): a moderate increase in the number of punished passes in the 4 plate test on mice (at high doses); Affected foetuses, number ([14]; 10 mg/kg daily): 0; Total foetuses (live) ([14]; 10 mg/kg daily): 88; Affected foetuses, % ([14]; 10 mg/kg daily): 0%; pH ([15]; 0.3 g/liter in distilled water): 5.0; pH ([15]; 0.5 g/liter in distilled water): 4.5; pH ([15]; 1 g/liter in distilled water): 3.5; pH ([15]; 2 g/liter in distilled water): 3.0; pH ([15]; 3 g/liter in distilled water): 2.5; pH ([15]; 26 g/liter in distilled water): 1.5; pH ([15]; ≤0.05 g/liter in distilled water): 5.5; α-adrenergic stimulant effects (overall) (CNS; conclusion of the tests): an α-adrenergic stimulation component
3 | CC(C(=O)c1ccc(N)cc1)N1CCSCC1 (stereo not shown) [CRL 41 248] |  |  |  |  |  |  |  |  |  |  |  |  |  |  |  |  |  | 1.5 |  |  | Affected foetuses, number ([14]; 10 mg/kg daily): 1; Total foetuses (live) ([14]; 10 mg/kg daily): 93; Affected foetuses, % ([14]; 10 mg/kg daily): 1.07%; pH ([15]; 0.05 g/liter in distilled water): 5.0; pH ([15]; 0.1 g/liter in distilled water): 4.5; pH ([15]; 0.2 g/liter in distilled water): 4.0; pH ([15]; 0.4 g/liter in distilled water): 3.5; pH ([15]; 1.2-0.8 g/liter in distilled water): 3.0; pH ([15]; 3.2 g/liter in distilled water): 2.5; pH ([15]; 6.4 g/liter in distilled water): 2.0; pH ([15]; ≤0.025 g/liter in distilled water): 5.5; Immunological effect (overall) (immunity): immunostimulant or immunomodulating effects
4 | COC(=O)C(c1ccccc1)C1CCCCN1 (stereo not shown) [methylphenidate, reference compound] |  |  |  |  |  |  |  |  |  |  |  |  |  |  |  |  |  |  |  |  | selectivity ratio [16]: ~6
5 | CN1Cc2c(N)cccc2C(c2ccccc2)C1 (stereo not shown) [nomifensin, reference compound] |  |  |  |  |  |  |  |  |  |  |  |  |  |  |  |  |  |  |  |  | selectivity ratio [16]: ~4
